Tests used:
rice (Nampyung rice) = assay: Foliage treatment with emulsions, dry rice field conditions, harmful effect on rice (Test Example 2, Table 9); type: in vivo; conditions: 6~6.5-leaf stage, 150 g a.i./ha, emulsion; for Harmful effect, 20 days: 20 days after foliage treatment; for Harmful effect, 30 days: 30 days after foliage treatment
Text: (§1) Seeds of rice (Nampyung rice) and barnyard grasses (Echinochloa oryzicola and Echinochloa crus-galli var. crus-galli) were placed in sandy loam of pots, covered with soil, and grown in the dry rice field conditions.

[1] = test system: Echinochloa crus-galli var. crus-galli; assay: Foliage treatment with emulsions, dry rice field conditions (Test Example 2, Table 9); type: in vivo; conditions: 150 g a.i./ha; emulsion of Formulation Example 3; division stage 1~2; 20 days after foliage treatment
Text: as §1
(§2) Rice (6˜6.5-leaf stage, plant height 33.2 cm) and barnyard grasses (Echinochloa oryzicola: division stage 1˜2, plant height 38.0 cm, Echinochloa crus-galli var. crus-galli: division stage 1˜2, plant height 44.1 cm) were subjected to a foliage treatment with emulsions prepared according to Formulation Example 3 by using compounds of Examples 1, 5 and 13 (purity: 99% or more), wherein the emulsions were sprayed to the plants at a dosage of the active compound of 150 g/ha.
(§3) The herbicidal effect on the barnyard grasses and harmful effect on the rice of the test compounds at 20 days and 30 days after the foliage treatment were visually evaluated as in Test Example 1 in comparison with the untreated control, and the results are shown in Table 9.

Echinochloa oryzicola = assay: as above; type: in vivo; conditions: 150 g a.i./ha; emulsion of Formulation Example 3; division stage 1~2; 20 days after foliage treatment
Text: as §1, §2, §3

Rice = assay: Weed control test, 4-leaf stage plants (Test Example 1, Table 8)
Description: Seeds of rice, wheat, soy bean, barley, corn, common sorgum, barnyard grass, large crabgrass, creek grass, green foxtail and fall panicum were placed in sandy loam in 600 cm^2 pots and covered with soil. After keeping the pots in a greenhouse at 20 to 30° C. allowing growth of the plants to the 3-leaf stage of the barnyard grass, 2,000 l/ha of an emulsion obtained by diluting with water a mixture of 1 part by weight of a test compound, 5 parts by weight of acetone and 1 part by weight of an emulsifying agent (Tween 80, Junsei) was applied to the surface of the foliage of the plants. The plant damage at 10 days and 20 days after the foliage treatment was visually evaluated from the level of 1 to 100% by comparison with the untreated control: […]

Barnyard grass = assay: as above; type: in vivo, Echinoch crus-galli Beauv. var. caudata Kitagawa
[2] = test system: GLXMA (Glycine max(L.) MERR, soy bean); assay: Weed control test, foliage treatment (Test Example 1, Table 7)
[3] = test system: HORVU (Hordeum vulgare L., barley); assay: as above
[4] = test system: TRZAW (Tritium aestivum L., wheat); assay: as above
[5] = test system: ORYSA (Oryza sativa cv. Dongjin, rice); assay: as above
[6] = test system: ARTHIS (Arthraxon hispidus (Thunb.) Makino, creek grass); assay: as above; type: in vivo
Method in brief: (§4)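 Visual injury ratings of 1 to 100% relative to untreated plants were taken 10 and 20 days after a single foliar application. The spray was 2,000 l/ha of compound emulsified with acetone and Tween 80 in water, given at the 3-leaf stage of barnyard grass in a 20 to 30° C greenhouse.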

[7] = test system: PANDI (Panium dichotomiflorum Michx, fall panicum); assay: as above; type: in vivo
Method in brief: as §4

[8] = test system: SETVIR (Setaria viridis (L.) Beauv, green foxtail); assay: as above; type: in vivo
Method in brief: as §4

[9] = test system: ZEAMX (Zea mays L., corn); assay: as above; type: in vivo
Method in brief: as §4

[10] = test system: DIGSA (Digitaria Sanguinalis (L.) SCOP, large crabgrass); assay: as above; type: in vivo
Method in brief: as §4

[11] = test system: ECHOG (Echinoch crus-galli Beauv. var. caudata Kitagawa, barnyard grass); assay: as above; type: in vivo; conditions: 3-leaf stage
Method in brief: as §4

[12] = test system: SORBI (Andropogon sorghum, common sorgum); assay: as above; type: in vivo
Method in brief: as §4

C[C@@H](Oc1ccc(Oc2nc3ccc(Cl)cc3o2)cc1)C(=O)Nc1nc2cc(Cl)ccc2o1 [Example 1, (R)-2-[4-(6-chloro-2-benzoxazolyloxy)phenoxy]propionic acid-N-(5-chloro-2-benzoxazolyl)amide]
70%: Plant damage (herbicidal activity), visually evaluated, Barnyard grass (Barnyard grass; 0.025 kg/ha) | pest or weed control at 25 g/ha ([6]; Arthraxon hispidus, foliar, 0.025 kg/ha, read-out: Plant damage (herbicidal activity), visually evaluated, ARTHIS) | pest or weed control at 25 g/ha ([8]; Setaria viridis, foliar, 0.025 kg/ha, read-out: Plant damage (herbicidal activity), visually evaluated, SETVIR)
100%: Herbicidal effect (0~100), 20 days, Echinochloa crus-galli var. crus-galli [1] | Herbicidal effect (0~100), 20 days, Echinochloa oryzicola (Echinochloa oryzicola) | Plant damage (herbicidal activity), visually evaluated, Barnyard grass (Barnyard grass; 0.1 kg/ha) | Plant damage (herbicidal activity), visually evaluated, Barnyard grass (Barnyard grass; 0.4 kg/ha) | pest or weed control at 100 g/ha ([6]; Arthraxon hispidus, foliar, 0.1 kg/ha, read-out: Plant damage (herbicidal activity), visually evaluated, ARTHIS) | pest or weed control at 200 g/ha ([6]; Arthraxon hispidus, foliar, 0.2 kg/ha, read-out: Plant damage (herbicidal activity), visually evaluated, ARTHIS) | pest or weed control at 100 g/ha ([7]; Panicum dichotomiflorum, foliar, 0.1 kg/ha, read-out: Plant damage (herbicidal activity), visually evaluated, PANDI) | pest or weed control at 200 g/ha ([7]; Panicum dichotomiflorum, foliar, 0.2 kg/ha, read-out: Plant damage (herbicidal activity), visually evaluated, PANDI) | pest or weed control at 100 g/ha ([8]; Setaria viridis, foliar, 0.1 kg/ha, read-out: Plant damage (herbicidal activity), visually evaluated, SETVIR) | pest or weed control at 200 g/ha ([8]; Setaria viridis, foliar, 0.2 kg/ha, read-out: Plant damage (herbicidal activity), visually evaluated, SETVIR) | plant injury at 100 g/ha ([9]; Zea mays, foliar, 0.1 kg/ha, read-out: Plant damage (herbicidal activity), visually evaluated, ZEAMX) | plant injury at 200 g/ha ([9]; Zea mays, foliar, 0.2 kg/ha, read-out: Plant damage (herbicidal activity), visually evaluated, ZEAMX) | pest or weed control at 100 g/ha ([10]; Digitaria sanguinalis, foliar, 0.1 kg/ha, read-out: Plant damage (herbicidal activity), visually evaluated, DIGSA) | pest or weed control at 200 g/ha ([10]; Digitaria sanguinalis, foliar, 0.2 kg/ha, read-out: Plant damage (herbicidal activity), visually evaluated, DIGSA) | pest or weed control at 100 g/ha ([11]; Echinochloa crus-galli, foliar, 0.1 kg/ha, read-out: Plant damage (herbicidal activity), visually evaluated, ECHOG) | pest or weed control at 200 g/ha ([11]; Echinochloa crus-galli, foliar, 0.2 kg/ha, read-out: Plant damage (herbicidal activity), visually evaluated, ECHOG) | pest or weed control at 100 g/ha ([12]; Sorghum bicolor, foliar, 0.1 kg/ha, read-out: Plant damage (herbicidal activity), visually evaluated, SORBI) | pest or weed control at 200 g/ha ([12]; Sorghum bicolor, foliar, 0.2 kg/ha, read-out: Plant damage (herbicidal activity), visually evaluated, SORBI)
95%: pest or weed control at 25 g/ha ([11]; Echinochloa crus-galli, foliar, 0.025 kg/ha, read-out: Plant damage (herbicidal activity), visually evaluated, ECHOG)
0%: Harmful effect, 20 days (rice (Nampyung rice)) | Harmful effect, 30 days (rice (Nampyung rice)) | Plant damage (herbicidal activity), visually evaluated, Rice (Rice; in vivo) | Plant damage (herbicidal activity), visually evaluated, GLXMA ([2]; in vivo) | Plant damage (herbicidal activity), visually evaluated, HORVU ([3]; in vivo) | Plant damage (herbicidal activity), visually evaluated, TRZAW ([4]; in vivo) | Plant damage (herbicidal activity), visually evaluated, ORYSA ([5]; in vivo)
60%: pest or weed control at 25 g/ha ([12]; Sorghum bicolor, foliar, 0.025 kg/ha, read-out: Plant damage (herbicidal activity), visually evaluated, SORBI)
30%: plant injury at 25 g/ha ([9]; Zea mays, foliar, 0.025 kg/ha, read-out: Plant damage (herbicidal activity), visually evaluated, ZEAMX)
90%: Plant damage (herbicidal activity), visually evaluated, Barnyard grass (Barnyard grass; 0.05 kg/ha) | pest or weed control at 25 g/ha ([7]; Panicum dichotomiflorum, foliar, 0.025 kg/ha, read-out: Plant damage (herbicidal activity), visually evaluated, PANDI) | pest or weed control at 25 g/ha ([10]; Digitaria sanguinalis, foliar, 0.025 kg/ha, read-out: Plant damage (herbicidal activity), visually evaluated, DIGSA)

CCOC(=O)[C@@H](C)Oc1ccc(Oc2nc3ccc(Cl)cc3o2)cc1 [Phenoxaprop-P-ethyl, phenoxaprop-P-ethyl, reference compound]
20%: Plant damage (herbicidal activity), visually evaluated, Rice (Rice; 4-leaf stage, 0.025 kg/ha) | Plant damage (herbicidal activity), visually evaluated, HORVU ([3]; barley, 0.1 kg/ha, foliage treatment) | Plant damage (herbicidal activity), visually evaluated, SETVIR ([8]; 0.025 kg/ha)
23%: Harmful effect, 20 days (rice (Nampyung rice))
50%: Plant damage (herbicidal activity), visually evaluated, SORBI ([12]; 0.025 kg/ha)
70%: Plant damage (herbicidal activity), visually evaluated, Rice (Rice; 4-leaf stage, 0.1 kg/ha)
0%: Plant damage (herbicidal activity), visually evaluated, GLXMA ([2]; soy bean, 0.025 kg/ha, foliage treatment) | Plant damage (herbicidal activity), visually evaluated, GLXMA ([2]; soy bean, 0.1 kg/ha, foliage treatment) | Plant damage (herbicidal activity), visually evaluated, GLXMA ([2]; soy bean, 0.2 kg/ha, foliage treatment) | Plant damage (herbicidal activity), visually evaluated, HORVU ([3]; barley, 0.025 kg/ha, foliage treatment) | Plant damage (herbicidal activity), visually evaluated, TRZAW ([4]; wheat, 0.025 kg/ha, foliage treatment) | Plant damage (herbicidal activity), visually evaluated, ORYSA ([5]; rice, 0.025 kg/ha, foliage treatment) | Plant damage (herbicidal activity), visually evaluated, ORYSA ([5]; rice, 0.1 kg/ha, foliage treatment) | Plant damage (herbicidal activity), visually evaluated, ORYSA ([5]; rice, 0.2 kg/ha, foliage treatment)
10%: Plant damage (herbicidal activity), visually evaluated, TRZAW ([4]; wheat, 0.1 kg/ha, foliage treatment) | Plant damage (herbicidal activity), visually evaluated, TRZAW ([4]; wheat, 0.2 kg/ha, foliage treatment)
80%: Plant damage (herbicidal activity), visually evaluated, Rice (Rice; 4-leaf stage, 0.4 kg/ha)
38%: Harmful effect, 30 days (rice (Nampyung rice))
100%: Herbicidal effect (0~100), 20 days, Echinochloa crus-galli var. crus-galli [1] | Herbicidal effect (0~100), 20 days, Echinochloa oryzicola (Echinochloa oryzicola) | Plant damage (herbicidal activity), visually evaluated, Barnyard grass (Barnyard grass; 0.05 kg/ha) | Plant damage (herbicidal activity), visually evaluated, Barnyard grass (Barnyard grass; 0.1 kg/ha) | Plant damage (herbicidal activity), visually evaluated, Barnyard grass (Barnyard grass; 0.4 kg/ha) | Plant damage (herbicidal activity), visually evaluated, ARTHIS ([6]; 0.1 kg/ha) | Plant damage (herbicidal activity), visually evaluated, ARTHIS ([6]; 0.2 kg/ha) | Plant damage (herbicidal activity), visually evaluated, PANDI ([7]; 0.1 kg/ha) | Plant damage (herbicidal activity), visually evaluated, PANDI ([7]; 0.2 kg/ha) | Plant damage (herbicidal activity), visually evaluated, SETVIR ([8]; 0.1 kg/ha) | Plant damage (herbicidal activity), visually evaluated, SETVIR ([8]; 0.2 kg/ha) | Plant damage (herbicidal activity), visually evaluated, ZEAMX ([9]; 0.1 kg/ha) | Plant damage (herbicidal activity), visually evaluated, ZEAMX ([9]; 0.2 kg/ha) | Plant damage (herbicidal activity), visually evaluated, DIGSA ([10]; 0.1 kg/ha) | Plant damage (herbicidal activity), visually evaluated, DIGSA ([10]; 0.2 kg/ha) | Plant damage (herbicidal activity), visually evaluated, ECHOG ([11]; 0.1 kg/ha) | Plant damage (herbicidal activity), visually evaluated, ECHOG ([11]; 0.2 kg/ha) | Plant damage (herbicidal activity), visually evaluated, SORBI ([12]; 0.1 kg/ha) | Plant damage (herbicidal activity), visually evaluated, SORBI ([12]; 0.2 kg/ha)
40%: Plant damage (herbicidal activity), visually evaluated, HORVU ([3]; barley, 0.2 kg/ha, foliage treatment) | Plant damage (herbicidal activity), visually evaluated, DIGSA ([10]; 0.025 kg/ha)
30%: Plant damage (herbicidal activity), visually evaluated, Rice (Rice; 4-leaf stage, 0.05 kg/ha) | Plant damage (herbicidal activity), visually evaluated, ARTHIS ([6]; 0.025 kg/ha) | Plant damage (herbicidal activity), visually evaluated, PANDI ([7]; 0.025 kg/ha) | Plant damage (herbicidal activity), visually evaluated, ZEAMX ([9]; 0.025 kg/ha) | Plant damage (herbicidal activity), visually evaluated, ECHOG ([11]; 0.025 kg/ha)
90%: Plant damage (herbicidal activity), visually evaluated, Barnyard grass (Barnyard grass; 0.025 kg/ha)

Source: patent US8293774B2, “Optically active (R)-aryloxypropionic acid amides and herbicidal composition comprising same” (Kyung Nong Corporation, priority 2007, dated 2012)
